The target in assay [1] is LmajUUT1. Kind of assay: [3H]-uridine uptake by L. major promastigotes, high-affinity uracil-sensitive component. It counts as cell-based, Leishmania major. As to conditions: inhibition of 0.25 μM [3H]-uridine uptake. As for the experimental part:
(§1) Using the standard uptake technique as described for T. brucei and Leishmania species ([Wallace et al., 2002], [Al-Salabi and De Koning, 2005], [Gudin et al., 2006]), the dose- or time-dependent uptake of radiolabeled permeants was investigated.
(§2) Briefly, cells in the mid-to-late logarithmic stage of growth were harvested by centrifugation for 10 min at 1500×g. The cells were washed twice with transport assay buffer (AB: 33 mM HEPES, 98 mM NaCl, 4.6 mM KCl, 0.55 mM CaCl2, 0.07 mM MgSO4, 5.8 mM NaH2PO4, 0.3 mM MgCl2, 23 mM NaHCO3, 14 mM glucose, pH 7.3), resuspended at a density of 10^8 cells ml^−1 in AB, and left for 20–30 min at room temperature to recover from centrifugation stress. One hundred microliters of cell suspension was incubated at ambient temperature for a predetermined time with 100 μl radiolabeled test compound, in the presence or absence of unlabeled substrate or other competitive inhibitors. The incubation was terminated by the addition of ice-cold stop solution (AB containing saturating levels, usually 10 mM, of unlabeled permeant) and centrifugation through oil for 1 min at 13,000 × g. […] Radioactivity was determined by liquid scintillation counting in a Beckman LS6000 TA scintillation counter. Saturation data, inhibition data, and time courses were plotted to equations for linear or non-linear regression (hyperbolic or sigmoid curves), as appropriate. All experiments were performed in triplicate and on at least three independent occasions.

For assay [2], the system named is L. major promastigotes. Kind of assay: total [3H]-uridine uptake by L. major promastigotes. As to conditions: Leishmania major. It counts as cell-based, Leishmania major. As for the experimental part:
as §1, §2

Assay [3] has as its target LmajNT1. Kind of assay: [3H]-thymidine uptake by L. major promastigotes. Format: cell-based, Leishmania major. The note with it: inhibition of 0.25 μM [3H]-thymidine uptake (total LmajNT1.1 + LmajNT1.2), 5 min.
The test system of assay [4] is LmexNT2. Kind of assay: [3H]-inosine transport by T. brucei B48 cells expressing LmexNT2. Format: cell-based, Leishmania mexicana. The procedure: Plasmid construction and transfection was performed according to [Munday et al. (2013)]. The nucleoside transporter genes were isolated from L. mexicana and L. major. […] The primers used in this study (Table S2) were designed to flank the gene of interest, one complementary to the sequence upstream of the 5′ end and the other complementary to the sequence downstream of the 3′ end. All of the nucleoside transporters genes were PCR-amplified from genomic DNA of each strain using the high-fidelity proof-reading polymerase Phusion (New England Biolabs) and cloned into the pGEMTeasy (Promega) vector prior to Sanger sequencing (Source BioScience, Glasgow, UK). […] After confirming the identity of each gene, the nucleoside transporter genes (LmajNT1A, LmajNT1B, LmajNT2, LmexNT1A, LmexNT1B, and LmexNT2) were ligated into the expression vector pHD1336 ([Biebinger et al., 1997]) and then were linearized with NotI digestion. All genes were verified by Sanger sequencing, prior to transfection into T. b. brucei clone B48. B48 parasites (1 × 10^7 cells) were washed into Human T Cell buffer for transfection using the desired cassette with an Amaxa Nucleofector using program X-001. […]
(§3) Briefly, cells in the mid-to-late logarithmic stage of growth were harvested by centrifugation for 10 min at 1500×g. […] Radioactivity was determined by liquid scintillation counting in a Beckman LS6000 TA scintillation counter. […]

Assay [5] concerns the target LmexNT1. Format: cell-based, Leishmania mexicana. The note with it: inhibition of 1 μM [3H]-thymidine uptake, 20 s. The procedure: as §1, §2
L. donovani is known to express one pyrimidine nucleoside transporter, LdNT1, which also transports adenosine ([Vasudevan et al., 1998], [De Koning et al., 2005]). In order to investigate whether this model held true for L. mexicana, the uptake of [^3H]-thymidine was studied. […] Care was taken throughout this study that whenever inhibition constants (Ki) or Michaelis-Menten constants (Km) were determined the conditions used had been verified to be well within the linear range of uptake.

The subject of assay [6] is T. b. brucei strain B48. Description: microbe, parasite or virus in culture. The note with it: Trypanosoma brucei, read-out: inhibition of 0.5 μM [3H]-uridine uptake, 250 μM inhibitor. Format: cell-based. The procedure:
as §1
as §2, with “All experiments were performed in triplicate and on at least three independent occasions.” left out

Assay [7] relates to LmajNT2. Kind of assay: [3H]-inosine transport by T. brucei B48 cells expressing LmajNT2. It counts as cell-based, Leishmania major. The procedure: Plasmid construction and transfection was performed according to [Munday et al. (2013)]. The nucleoside transporter genes were isolated from L. mexicana and L. major. […] The primers used in this study (Table S2) were designed to flank the gene of interest, one complementary to the sequence upstream of the 5′ end and the other complementary to the sequence downstream of the 3′ end. All of the nucleoside transporters genes were PCR-amplified from genomic DNA of each strain using the high-fidelity proof-reading polymerase Phusion (New England Biolabs) and cloned into the pGEMTeasy (Promega) vector prior to Sanger sequencing (Source BioScience, Glasgow, UK). […] After confirming the identity of each gene, the nucleoside transporter genes (LmajNT1A, LmajNT1B, LmajNT2, LmexNT1A, LmexNT1B, and LmexNT2) were ligated into the expression vector pHD1336 ([Biebinger et al., 1997]) and then were linearized with NotI digestion. All genes were verified by Sanger sequencing, prior to transfection into T. b. brucei clone B48. B48 parasites (1 × 10^7 cells) were washed into Human T Cell buffer for transfection using the desired cassette with an Amaxa Nucleofector using program X-001. Cells were transferred into pre-warmed HMI-9 medium and allowed to recover for 8–16 h at 37 °C and 5% CO2. Following recovery, transfectants were grown and cloned in selective medium containing 5 μg ml^−1 blasticidin S using limiting dilution.
as §1, §3

Assay [8] has as its target LmajNT1. Description: [3H]-uridine uptake by L. major promastigotes, low-affinity component. The note with it: inhibition of 0.25 μM [3H]-uridine uptake. Format: cell-based, Leishmania major. The procedure:
as §1, §2

For assay [9], the system named is T. b. brucei strain B48. Description: [3H]-inosine uptake in non-transfected T. brucei B48. It counts as cell-based, Trypanosoma brucei brucei. As for the experimental part: as §1, §2
The target in assay [10] is LmexNT1. Kind of assay: [3H]-adenosine uptake by L. mexicana promastigotes. It counts as cell-based, Leishmania mexicana.
Excerpt: Using the standard uptake technique as described for T. brucei and Leishmania species ([Wallace et al., 2002], [Al-Salabi and De Koning, 2005], [Gudin et al., 2006]), the dose- or time-dependent uptake of radiolabeled permeants was investigated. The following radiolabels and specific activities were used: [^3H]-thymidine (Perkin Elmer; 56.6 Ci/mmol); [^3H]-adenosine (American Radiolabeled Chemicals UK; 40 Ci/mmol); [^3H]-uridine (American Radiolabeled Chemicals UK; 30 Ci/mmol); [^3H]-uracil (Perkin Elmer; 24.8 Ci/mmol); [^3H]-inosine (American Radiolabeled Chemicals UK; 20 Ci/mmol); [^3H]-5-fluorouracil (Moravek; 20 Ci/mmol).
as §2
We next investigated the transport of [^3H]-adenosine in L. mexicana promastigotes, which according to the efficient inhibition of [^3H]-thymidine by adenosine, should be taken up with high affinity.

In assay [11] the target is LmexNT1. Format: cell-based, Leishmania mexicana. As to conditions: inhibition of 0.25 μM [3H]-uridine uptake in the presence of 1 mM uracil. The procedure, abridged: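 Mid-to-late log-phase parasites were washed and held at 10^8 cells ml^−1 in HEPES/bicarbonate buffer with glucose, pH 7.3, then incubated at ambient temperature with radiolabelled permeant, with or without unlabelled substrate or inhibitors. Uptake was stopped with ice-cold excess unlabelled permeant and oil centrifugation, then counted by scintillation; saturation, inhibition and time-course data fitted by regression, in triplicate.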

Where [12] appears, read: 50 nM [3H]-inosine + 250 μM adenosine.

The structures appear in SMILES notation. Like-named read-outs stand apart in the source and are kept apart here.

Usually Ki stands for a dissociation constant, usually derived from enzyme kinetics or from competition with a known ligand. As usually defined, the inhibition is the percentage by which the read-out fell short of the control. Regarding `O=c1[nH]cnc2c1ncn2[C@@H]1O[C@H](CO)[C@@H](O)[C@H]1O` [inosine], the Ki in [1] is 0.5 ± 0.16 µM; in assay [3], 1990 ± 3050 µM; in [5], 640 ± 34 µM; in assay [8], greater than 1000 µM; in [10] (inhibition of 0.05 μM [3H]-adenosine uptake, read-out: Ki), 1630 ± 134 µM; in [10] (inhibition of [3H]-adenosine uptake, read-out: affinity for inhibition of adenosine transport (Ki)), 1600 ± 100 µM. In assay [11], the inhibitory constant (Ki) is 1010 ± 190 µM. In addition, the inhibition at 100 µM is 83.5% in assay [2] (20 min, read-out: inhibition of 0.25 μM uridine transport in time course over 20 min, 100 μM inhibitor, n = 2) and 70.8 ± 4.5% in assay [2] (at 100 μM inhibitor, read-out: inhibition of 0.25 μM [3H]-uridine transport). Also, the “rate of transport in the presence of adenosine” value in assay [4] (setting [12]) is 0.0023 ± 0.0003 pmol(10^7 cells)^−1s^−1. The “inhibition of 50 nM [3H]-inosine transport” value in assay [4] (1 mM inosine) was 99.9%; in assay [7] (1 mM inosine), 99.8%; in assay [9] (250 μM adenosine or 1 mM unlabeled inosine (Fig. 7B)), “fully inhibited”. In addition, the inhibition at 250 µM in assay [6] was 24.3%. The “uptake rate in the presence of adenosine” value in assay [7] (setting [12]) is given as 0.0023 ± 0.0001 pmol(10^7 cells)^−1s^−1. Further, the rate of uptake in [9] (50 nM [3H]-inosine) is listed as 0.0049 ± 0.0002 pmol(10^7 cells)s^−1.

These data come from PMC5407577, “Functional and genetic evidence that nucleoside transport is highly conserved in Leishmania species: Implications for pyrimidine-based chemotherapy” (International Journal for Parasitology: Drugs and Drug …, 2017).
